Laboratory results taken from PMC12568630, “SNAP-tag2 for faster and brighter protein labeling” (Nature Chemical Biology, 2025).

Each molecule was assayed against T1, hAGT (Homo sapiens, UniProt P16455) (assay: biochemical). Conditions: read-out: hAGT kapp x 10^3.
T1 construct: gene MGMT; parental hAGT
T1 sequence (P16455 1-207): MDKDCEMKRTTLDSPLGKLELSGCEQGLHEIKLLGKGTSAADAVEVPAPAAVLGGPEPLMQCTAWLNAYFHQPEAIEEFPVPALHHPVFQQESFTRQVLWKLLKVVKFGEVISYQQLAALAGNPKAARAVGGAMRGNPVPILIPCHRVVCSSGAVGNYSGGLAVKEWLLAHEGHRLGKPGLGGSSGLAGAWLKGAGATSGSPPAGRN
Design: fluorescence polarization labeling kinetics of purified tag proteins with TMR substrates, apparent second-order rate constant

kinact/KI [M⁻¹ s⁻¹] | SMILES
550 ± 50 | CN(C)c1ccc2c(-c3cc(C(=O)NCc4ccc(COc5cc(Cl)nc(N)n5)cc4F)ccc3C(=O)[O-])c3ccc(=[N+](C)C)cc-3oc2c1 [compound 22, CF–TMR]
800 ± 40 | CN(C)c1ccc2c(-c3cc(C(=O)NCc4ccc(COc5cc(Cl)nc(N)n5)cc4)ccc3C(=O)[O-])c3ccc(=[N+](C)C)cc-3oc2c1 [CP–TMR]
520 ± 60 | CN(C)c1ccc2c(-c3cc(C(=O)NCc4ccc(COc5cc(C(F)(F)F)nc(N)n5)cc4F)ccc3C(=O)[O-])c3ccc(=[N+](C)C)cc-3oc2c1 [compound 30, TF–TMR]
640 ± 40 | CN(C)c1ccc2c(-c3cc(C(=O)NCc4ccc(COc5cc(C(F)(F)F)nc(N)n5)cc4)ccc3C(=O)[O-])c3ccc(=[N+](C)C)cc-3oc2c1 [compound 4, CF3P–TMR]
